Reference: ChEMBL document CHEMBL1201862, “PubChem BioAssay data set” (2004)
“And” between values parts separate entries of the source, which are not always exact repeats. Equal entries are not always repeated.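 Where inhibition never reached the appropriate level, the endpoint shown equals the highest concentration tested. Otherwise, values were interpolated linearly from a five-concentration, 48-hour dose response in 96-well plates. At the GI50, growth is halved.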 The source made the active and inactive calls. No stated cut-off is given here; in the data, active = GI50 up to about 1.1 µM and inactive = higher. Starred links: 1 amine or outer side, 2 acyl side, 3 side chain; linkers in the order of their positions; H or OH if unused. Positions of bridges follow the written chain, without caps; N, C: chain ends. Non-standard residues stand in square brackets, D forms with d. Residues, ends and D or L forms follow the SMILES beside them. Chains are numbered I, II in the order given. Actinocin(9to1) = Cc1c2oc3c(C)ccc(C(=O)[*:1])c3nc-2c(C(=O)[*:2])c(N)c1=O; NMeF = CN[CH](Cc1ccccc1)C(=O)O; Sar = CNCC(=O)O

Columns and labels:
Assay in all cases: NCI anticancer screen, dose series, 48 h
786-0 = system: 786-0
A549 = system: A549
ACHN = system: ACHN
BT-549 = system: BT-549
CAKI-1 = system: CAKI-1
CCRF-CEM = system: CCRF-CEM
COLO 205 = system: COLO 205
DU-145 = system: DU-145
EKVX = system: EKVX
HCC 2998 = system: HCC 2998
HCT-116 = system: HCT-116
HCT-15 = system: HCT-15
HL-60 = system: HL-60
HOP-92 = system: HOP-92
HT-29 = system: HT-29
Hs-578T = system: Hs-578T
IGROV-1 = system: IGROV-1
K562 = system: K562
KM12 = system: KM12
LOX IMVI = system: LOX IMVI
M14 = system: M14
MCF7 = system: MCF7
MDA-MB-231 = system: MDA-MB-231
MDA-MB-435 = system: MDA-MB-435
MOLT-4 = system: MOLT-4
Malme-3M = system: Malme-3M
NCI-H226 = system: NCI-H226
NCI-H23 = system: NCI-H23
NCI-H460 = system: NCI-H460
NCI-H522 = system: NCI-H522
NCI/ADR-RES = system: NCI/ADR-RES
OVCAR-3 = system: OVCAR-3
OVCAR-4 = system: OVCAR-4
OVCAR-5 = system: OVCAR-5
OVCAR-8 = system: OVCAR-8
PC-3 = system: PC-3
RPMI-8226 = system: RPMI-8226
RXF 393 = system: RXF 393
SF-268 = system: SF-268
SF-295 = system: SF-295
SK-MEL-28 = system: SK-MEL-28
SK-MEL-2 = system: SK-MEL-2
SK-MEL-5 = system: SK-MEL-5
SK-OV-3 = system: SK-OV-3
SNB-19 = system: SNB-19
SNB-75 = system: SNB-75
SR = system: SR
SW-620 = system: SW-620
T47D = system: T47D
TK-10 = system: TK-10
UACC-257 = system: UACC-257
UACC-62 = system: UACC-62
UO-31 = system: UO-31
A498 = system: A498
HOP-62 = system: HOP-62
SF-539 = system: SF-539

`Cc1ccc(Nc2nc(O)c3[nH]cnc3n2)cc1CO` was tested. Which GI50 (786-0) did it give?
Its GI50 is 15.7 µM (inactive).

What about the GI50 (A549) of the same compound?
The GI50 was 3 µM (inactive).

And the GI50 (ACHN)?
The GI50 was 16 µM (inactive).

What about the GI50 (BT-549) of the same compound?
The GI50 was 14.9 µM (inactive).

What about the GI50 (CAKI-1) of the same compound?
The GI50 was 15.2 µM (inactive).

What about the GI50 (CCRF-CEM) of the same compound?
Its GI50 is 16.1 µM (inactive).

And the GI50 (COLO 205)?
Its GI50 is 14.6 µM (inactive).

And the GI50 (DU-145)?
Its GI50 is 19.5 µM (inactive).

What about the GI50 (EKVX) of the same compound?
The GI50 was 14.8 µM (inactive).

And the GI50 (HCC 2998)?
The GI50 was 15.5 µM (inactive).

And the GI50 (HCT-116)?
Its GI50 is 12.1 µM (inactive).

What about the GI50 (HCT-15) of the same compound?
The GI50 was 15.6 µM.

And the GI50 (HL-60)?
The GI50 was 1.7 µM (inactive).

And the GI50 (HOP-92)?
The GI50 was 8.79 µM (inactive).

And the GI50 (HT-29)?
The GI50 was 8.87 µM (inactive).

And the GI50 (Hs-578T)?
Its GI50 is 21.2 µM (inactive).

What about the GI50 (IGROV-1) of the same compound?
The GI50 was 14.9 µM (inactive).

What about the GI50 (K562) of the same compound?
Its GI50 is 15.9 µM (inactive).

And the GI50 (KM12)?
The GI50 was 8.81 µM (inactive).

And the GI50 (LOX IMVI)?
The GI50 was 19.9 µM (inactive).

And the GI50 (M14)?
Its GI50 is 12.8 µM (inactive).

And the GI50 (MCF7)?
The GI50 was 16.6 µM (inactive).

And the GI50 (MDA-MB-231)?
The GI50 was 12.1 µM (inactive).

And the GI50 (MDA-MB-435)?
Its GI50 is 15.8 µM (inactive).

What about the GI50 (MOLT-4) of the same compound?
The GI50 was 15.5 µM (inactive).

What about the GI50 (Malme-3M) of the same compound?
Its GI50 is 16.5 µM (inactive).

And the GI50 (NCI-H226)?
The GI50 was 17.1 µM (inactive).

And the GI50 (NCI-H23)?
Its GI50 is 17.7 µM (inactive).

And the GI50 (NCI-H460)?
Its GI50 is 16.5 µM (inactive).

And the GI50 (NCI-H522)?
The GI50 was 11.6 µM (inactive).

And the GI50 (NCI/ADR-RES)?
The GI50 was 15.4 µM (inactive).

What about the GI50 (OVCAR-3) of the same compound?
The GI50 was 15.7 µM (inactive).

And the GI50 (OVCAR-4)?
The GI50 was 17.1 µM (inactive).

And the GI50 (OVCAR-5)?
The GI50 was 18.9 µM (inactive).

What about the GI50 (OVCAR-8) of the same compound?
Its GI50 is 16.6 µM (inactive).

What about the GI50 (PC-3) of the same compound?
Its GI50 is 12.8 µM (inactive).

What about the GI50 (RPMI-8226) of the same compound?
Its GI50 is 10.7 µM (inactive).

And the GI50 (RXF 393)?
Its GI50 is 16.3 µM (inactive).

And the GI50 (SF-268)?
Its GI50 is 20.7 µM (inactive).

What about the GI50 (SF-295) of the same compound?
Its GI50 is 15.9 µM (inactive).

What about the GI50 (SK-MEL-28) of the same compound?
Its GI50 is 17.8 µM (inactive).

And the GI50 (SK-MEL-2)?
Its GI50 is 16.6 µM (inactive).

What about the GI50 (SK-MEL-5) of the same compound?
Its GI50 is 16.5 µM (inactive).

And the GI50 (SK-OV-3)?
The GI50 was 13.5 µM (inactive).

And the GI50 (SNB-19)?
Its GI50 is 12.2 µM (inactive).

And the GI50 (SNB-75)?
The GI50 was 14.7 µM (inactive).

And the GI50 (SR)?
Its GI50 is 14 µM (inactive).

What about the GI50 (SW-620) of the same compound?
Its GI50 is 17.5 µM (inactive).

And the GI50 (T47D)?
Its GI50 is 14 µM (inactive).

And the GI50 (TK-10)?
The GI50 was 18 µM (inactive).

What about the GI50 (UACC-257) of the same compound?
The GI50 was 17.3 µM (inactive).

And the GI50 (UACC-62)?
Its GI50 is 13 µM (inactive).

What about the GI50 (UO-31) of the same compound?
The GI50 was 16 µM (inactive).

With `Cc1c2oc3c(C)ccc(C(=O)NC4C(=O)NC(C(C)C)C(=O)N5CCCC5C(=O)N(C)CC(=O)N(C)C(Cc5ccccc5)C(=O)OC4C)c3nc-2c(C(=O)NC2C(=O)NC(C(C)C)C(=O)N3CCCC3C(=O)N(C)CC(=O)N(C)C(Cc3ccccc3)C(=O)OC2C)c(N)c1=O` (stereo not given) (I: TVP[Sar][NMeF] / II: TVP[Sar][NMeF]; ester I:1-I:C, II:1-II:C; linker I:N-II:N via Actinocin(9to1); configuration not given here) as the compound, how does the GI50 (A498) read?
Its GI50 is 0.0108 µM (active).

What about the GI50 (ACHN) of the same compound?
The GI50 was 0.00989 µM (active).

And the GI50 (BT-549)?
The GI50 was 0.0189 µM (active).

What about the GI50 (CAKI-1) of the same compound?
Its GI50 is < 10 nM (active) and 17.3 nM (active).

What about the GI50 (DU-145) of the same compound?
The GI50 was 0.00807 µM (active).

What about the GI50 (HCC 2998) of the same compound?
Its GI50 is 0.00887 µM (active).

What about the GI50 (HOP-62) of the same compound?
Its GI50 is < 10 nM (active) and 9.31 nM (active).

What about the GI50 (HOP-92) of the same compound?
The GI50 was < 10 nM (active) and 14.9 nM (active).

And the GI50 (Hs-578T)?
Its GI50 is < 10 nM (active) and 7.24 nM (active).

What about the GI50 (KM12) of the same compound?
Its GI50 is 0.00504 µM (active).

What about the GI50 (M14) of the same compound?
Its GI50 is < 10 nM (active) and 19.6 nM (active).

And the GI50 (MDA-MB-435)?
The GI50 was < 10 nM (active) and 6.21 nM (active).

What about the GI50 (Malme-3M) of the same compound?
The GI50 was < 10 nM (active) and 6.65 nM (active).

And the GI50 (NCI-H226)?
Its GI50 is < 10 nM (active) and 16.5 nM (active).

What about the GI50 (NCI-H23) of the same compound?
The GI50 was < 10 nM (active) and < 11.1 nM (active).

What about the GI50 (OVCAR-3) of the same compound?
Its GI50 is < 10 nM (active) and 12.9 nM (active).

And the GI50 (OVCAR-4)?
Its GI50 is < 10 nM (active) and 6.64 nM (active).

And the GI50 (OVCAR-8)?
The GI50 was 0.0127 µM (active).

What about the GI50 (PC-3) of the same compound?
The GI50 was 0.0112 µM (active).

What about the GI50 (RPMI-8226) of the same compound?
Its GI50 is < 10 nM (active) and 9.95 nM (active).

And the GI50 (RXF 393)?
Its GI50 is < 10 nM (active) and 12.5 nM (active).

And the GI50 (SF-268)?
Its GI50 is < 10 nM (active) and 9.29 nM (active).

What about the GI50 (SF-295) of the same compound?
Its GI50 is < 10 nM (active) and 10.8 nM (active).

And the GI50 (SF-539)?
Its GI50 is < 10 nM (active) and 5.64 nM (active).

What about the GI50 (SK-MEL-28) of the same compound?
The GI50 was < 10 nM (active) and 7.33 nM (active).

And the GI50 (SK-MEL-2)?
Its GI50 is 0.00957 µM (active).

And the GI50 (SK-MEL-5)?
Its GI50 is < 10 nM (active) and 6 nM (active).

What about the GI50 (SK-OV-3) of the same compound?
The GI50 was 0.0157 µM (active).

And the GI50 (SNB-75)?
The GI50 was < 10 nM (active) and 7.11 nM (active).

What about the GI50 (SW-620) of the same compound?
Its GI50 is < 10 nM (active) and 6.17 nM (active).

What about the GI50 (T47D) of the same compound?
The GI50 was 0.00521 µM (active).

And the GI50 (UACC-257)?
The GI50 was < 10 nM (active) and 12.8 nM (active).
